Assay results taken from ChEMBL document CHEMBL1201862, “PubChem BioAssay data set” (2004).
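In this assay, cells in 96-well plates receive the compound at five concentrations for 48 hours. Endpoints are linearly interpolated between the surrounding concentrations. GI50: concentration for 50% inhibition of growth.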 Calls of active or inactive are those of the source. No stated cut-off is given here; in the data, active = GI50 up to about 1.1 µM and inactive = higher.

Tests used:
Test in all cases: DTP human tumour cell line panel, 48 h
SK-OV-3 = test system: SK-OV-3
COLO 205 = test system: COLO 205
CAKI-1 = test system: CAKI-1
RXF 393 = test system: RXF 393
OVCAR-8 = test system: OVCAR-8
NCI-H23 = test system: NCI-H23
M14 = test system: M14
ACHN = test system: ACHN
U-251 = test system: U-251
TK-10 = test system: TK-10
UACC-62 = test system: UACC-62
NCI-H460 = test system: NCI-H460
SK-MEL-5 = test system: SK-MEL-5
OVCAR-3 = test system: OVCAR-3
HOP-92 = test system: HOP-92
SK-MEL-28 = test system: SK-MEL-28
SF-295 = test system: SF-295
SW-620 = test system: SW-620
UACC-257 = test system: UACC-257
NCI-H522 = test system: NCI-H522

Measured: GI50

Cc1ccc(Nc2nc3ccccc3nc2NS(=O)(=O)c2ccc(N)cc2)cc1
inactive: SK-OV-3 > 100 µM | COLO 205 45.8 µM | CAKI-1 59.2 µM | RXF 393 30.8 µM | OVCAR-8 81.8 µM | NCI-H23 3.2 µM | M14 57.7 µM | ACHN 38.5 µM | U-251 30.2 µM | TK-10 45.9 µM | UACC-62 36.1 µM | NCI-H460 4.89 µM | SK-MEL-5 39.2 µM | OVCAR-3 65 µM | HOP-92 95.9 µM | SK-MEL-28 33.4 µM | SF-295 46.7 µM | SW-620 20.4 µM | UACC-257 > 100 µM | NCI-H522 25.2 µM

COc1ccc(/C(C#N)=C/c2ccc(OC)c(OC)c2)cc1
inactive: SK-OV-3 > 100 µM | COLO 205 > 100 µM | CAKI-1 > 100 µM | RXF 393 > 100 µM | OVCAR-8 > 100 µM | NCI-H23 > 100 µM | M14 > 100 µM | ACHN > 100 µM | U-251 > 100 µM | TK-10 > 100 µM | UACC-62 > 100 µM | NCI-H460 > 100 µM | SK-MEL-5 > 100 µM | OVCAR-3 > 100 µM | HOP-92 > 100 µM | SK-MEL-28 > 100 µM | SF-295 > 100 µM | SW-620 > 100 µM | UACC-257 > 100 µM | NCI-H522 > 100 µM

c1ccc(NN/N=N/c2ccc(-c3nc4ccccc4[nH]3)cc2)cc1
inactive: SK-OV-3 > 100 µM | COLO 205 23.1 µM | CAKI-1 30.1 µM | RXF 393 21.3 µM | OVCAR-8 36 µM | NCI-H23 32.5 µM | M14 10.6 µM | ACHN 25.8 µM | U-251 40.4 µM | TK-10 64.4 µM | NCI-H460 27 µM | SK-MEL-5 29 µM | OVCAR-3 15.6 µM | HOP-92 60.7 µM | SK-MEL-28 35.8 µM | SF-295 25.6 µM | SW-620 52.4 µM | UACC-257 28.6 µM | NCI-H522 24.7 µM

COc1cc(O)cc2oc(-c3ccc(O)cc3)cc(=O)c12
inactive: SK-OV-3 > 100 µM | COLO 205 > 100 µM | CAKI-1 64.3 µM | RXF 393 32.7 µM | OVCAR-8 34.4 µM | NCI-H23 > 100 µM | M14 > 100 µM | ACHN 64.7 µM | U-251 71.4 µM | TK-10 > 100 µM | UACC-62 83.9 µM | NCI-H460 67.5 µM | SK-MEL-5 > 100 µM | OVCAR-3 > 100 µM | HOP-92 71.9 µM | SK-MEL-28 > 100 µM | SF-295 36.2 µM | SW-620 49.3 µM | UACC-257 > 100 µM | NCI-H522 22.2 µM

C[C@]12CC[C@H]3[C@@H](CCC4=CC(=O)CC[C@@]43C)[C@@H]1CC[C@@H]2C(=O)COS(=O)(=O)c1ccc(Br)cc1
inactive: SK-OV-3 15.1 µM | COLO 205 20.5 µM | CAKI-1 7.76 µM | RXF 393 14.5 µM | OVCAR-8 3.61 µM | NCI-H23 2.37 µM | M14 6.55 µM | ACHN 10.9 µM | U-251 8.93 µM | TK-10 18.3 µM | UACC-62 16 µM | NCI-H460 10.1 µM | SK-MEL-5 8.77 µM | OVCAR-3 6.43 µM | HOP-92 5.94 µM | SK-MEL-28 21 µM | SF-295 19.3 µM | SW-620 9.4 µM | UACC-257 13.7 µM | NCI-H522 1.59 µM

Nc1n[c-](N)[n+](=O)c(N)c1NCO
inactive: SK-OV-3 > 100 µM | COLO 205 > 100 µM | CAKI-1 > 100 µM | RXF 393 > 100 µM | OVCAR-8 > 100 µM | NCI-H23 > 100 µM | M14 > 100 µM | ACHN > 100 µM | U-251 > 100 µM | TK-10 > 100 µM | UACC-62 > 100 µM | NCI-H460 > 100 µM | SK-MEL-5 > 100 µM | OVCAR-3 > 100 µM | HOP-92 > 100 µM | SK-MEL-28 > 100 µM | SF-295 > 100 µM | SW-620 > 100 µM | UACC-257 > 100 µM | NCI-H522 > 100 µM

CN(C)CCNC(=O)c1cccc2ccc(-c3ccc(F)cc3)nc12
inactive: SK-OV-3 7.62 µM | COLO 205 2.43 µM | CAKI-1 2.69 µM | RXF 393 7.38 µM | OVCAR-8 3.3 µM | NCI-H23 4.47 µM | U-251 6.19 µM | UACC-62 3.95 µM | NCI-H460 2.86 µM | SK-MEL-5 3.34 µM | OVCAR-3 6.89 µM | HOP-92 4.25 µM | SK-MEL-28 7.06 µM | SF-295 5.7 µM | SW-620 3.08 µM | UACC-257 5.51 µM | NCI-H522 3.91 µM

CC1(C)CC(=O)C2=C(C1)OC1=C(CC(C)(C)CC1=O)C2c1ccccc1[N+](=O)[O-] (configuration not stated)
inactive: SK-OV-3 > 100 µM | COLO 205 > 100 µM | CAKI-1 > 100 µM | RXF 393 > 100 µM | NCI-H23 > 100 µM | M14 > 100 µM | ACHN > 100 µM | U-251 > 100 µM | TK-10 > 100 µM | UACC-62 > 100 µM | NCI-H460 > 100 µM | SK-MEL-5 > 100 µM | OVCAR-3 > 100 µM | HOP-92 > 100 µM | SK-MEL-28 > 100 µM | SF-295 > 100 µM | SW-620 > 100 µM | NCI-H522 > 100 µM

CC(=O)C1CC[C@@H]2[C@H](CC[C@]3(C)[C@@H](O)CC[C@@H]23)[C@H]1C(=O)O (some centres not stated)
inactive: SK-OV-3 > 100 µM | COLO 205 > 100 µM | CAKI-1 > 100 µM | RXF 393 > 100 µM | OVCAR-8 > 100 µM | NCI-H23 > 100 µM | M14 > 100 µM | U-251 > 100 µM | TK-10 > 100 µM | UACC-62 > 100 µM | NCI-H460 > 100 µM | SK-MEL-5 > 100 µM | OVCAR-3 > 100 µM | HOP-92 > 100 µM | SK-MEL-28 > 100 µM | SF-295 > 100 µM | SW-620 > 100 µM | UACC-257 > 100 µM | NCI-H522 > 100 µM

Cc1nc2ccccc2n1C(=O)c1c(F)c(F)c(F)c(F)c1F
inactive: SK-OV-3 22.3 µM | COLO 205 14.8 µM | CAKI-1 16.7 µM | RXF 393 15.5 µM | OVCAR-8 17.7 µM | NCI-H23 17 µM | M14 10.8 µM | ACHN 22.9 µM | U-251 19 µM | TK-10 18.3 µM | UACC-62 16.1 µM | NCI-H460 5.09 µM | SK-MEL-5 12.1 µM | OVCAR-3 24.3 µM | HOP-92 11.7 µM | SK-MEL-28 29.4 µM | SF-295 28.8 µM | SW-620 5.09 µM | UACC-257 13.7 µM | NCI-H522 3.01 µM

O=c1[nH]c(=O)n(C2CC(O)C(CO)O2)cc1C(OCC(F)(F)F)OCC(F)(F)F (configuration not stated)
inactive: SK-OV-3 > 100 µM | COLO 205 > 100 µM | CAKI-1 > 100 µM | RXF 393 > 100 µM | OVCAR-8 > 100 µM | NCI-H23 > 100 µM | M14 > 100 µM | ACHN > 100 µM | U-251 > 100 µM | TK-10 > 100 µM | UACC-62 > 100 µM | NCI-H460 > 100 µM | SK-MEL-5 > 100 µM | OVCAR-3 > 100 µM | HOP-92 > 100 µM | SK-MEL-28 > 100 µM | SF-295 > 100 µM | SW-620 > 100 µM | UACC-257 > 100 µM | NCI-H522 > 100 µM

C[N+](C)([O-])CCOc1cc2c(c3ccccc13)-c1ccccc1C2=O
inactive: SK-OV-3 35.4 µM | COLO 205 16.3 µM | CAKI-1 21.5 µM | RXF 393 17.7 µM | OVCAR-8 6.27 µM | NCI-H23 21.5 µM | U-251 13.3 µM | UACC-62 14.4 µM | NCI-H460 9.44 µM | SK-MEL-5 14.4 µM | OVCAR-3 11.7 µM | HOP-92 7.66 µM | SK-MEL-28 18.3 µM | SF-295 4.63 µM | SW-620 12.3 µM | UACC-257 6.65 µM | NCI-H522 10.2 µM

O=C(NN1C(=O)CS(=O)(=O)C1c1ccc(Cl)c(Cl)c1)c1ccncc1 (configuration not stated)
inactive: SK-OV-3 57.5 µM | COLO 205 > 100 µM | CAKI-1 > 100 µM | RXF 393 > 69 µM | OVCAR-8 > 100 µM | NCI-H23 > 100 µM | U-251 > 100 µM | UACC-62 > 100 µM | NCI-H460 > 100 µM | SK-MEL-5 > 94.2 µM | OVCAR-3 > 90.8 µM | HOP-92 > 100 µM | SK-MEL-28 > 100 µM | SF-295 > 87.5 µM | SW-620 > 100 µM | UACC-257 > 100 µM | NCI-H522 66.1 µM
